Data from paper PMC4759522, “A fragment merging approach towards the development of small molecule inhibitors of Mycobacterium tuberculosis EthR for use as ethionamide boosters” (Organic & Biomolecular Chemistry, 2016).
Where two headings read alike, the source gives them in different places.

Legend:
[1] = biological target: T1, EthR (Mycobacterium tuberculosis, UniProt P9WMC1); experiment: Fluorescence-based thermal shift (DSF) against EthR; assay type: binding; details: fluorescent-based thermal shift against EthR, 100 μM compound
[2] = biological target: T1, EthR; experiment: SPR functional assay: disruption of the interaction between EthR and its DNA operator; assay type: biochemical; details: for fold improvement by SPR compared to compound 5: compared to merged compound 5; for LE: calculated using IC50 values determined by SPR
Method: (§1) containing NaCl (300 mM), Tris.HCl (20 mM, pH = 8.0) and DMSO-d6 (10% v/v) was prepared and placed in the sample cell of a MicroCal iTC200 microcalorimeter (GE Healthcare). The fragment solution was then titrated to the EthR solution over 39 injections (first injection of 0.4 μl and subsequent injections of 1.0 μl). Data was fitted to a one site binding model using Origin software.
(§2) Figure S6 ITC trace for 4-(4-(3-Oxo-3-(pyrrolidin-1-yl)propyl)piperidin-1-yl)benzonitrile 15 Surface plasmon resonance (SPR)
(§3) The SPR assay was carried out using a BIAcore T100 instrument as described previously.2 The assay was designed to measure the interaction of EthR with the ethA promoter DNA sequence (106 bp – experimental DNA), immobilised via biotin-streptavidin linkage onto an […]
(1 picture or pasted object on this page, not shown here)
SA Series S Sensor Chip (BIAcore). DNA from pUC19 (113 bp) was used as the control against non-specific binding. The experimental (106 bp) and control (113 bp) DNA fragments were produced as described previously.15,16 Biotinylated control and experimental DNA were immobilized to the chip surface to achieve stable fixation levels of 247 and 252 resonance units (RU) respectively.
For screening, EthR/ fragment solution (1-2 μM EthR and required concentration of fragment made up in running buffer (2 mM MgCl2, 10 mM Tris-Cl pH 7.5, 0.1 mM EDTA, 200 mM NaCl, 2% (v/v) DMSO) was flowed over the chip at 20 μL/min for 180 s. The dissociation time was 180 s. To determine binding levels, the response of the control channel at steady state was subtracted from that of the experiment channel. The chip was regenerated between samples using 0.03% w/v SDS in running buffer (passed at a flow rate of 20 μL/ min for 60 […]
For IC50 calculations, the SPR response of EthR binding to the immobilized DNA was measured at various concentrations of compound. The resulting RUs were used to fit the data using nonlinear regression with variable slope dose-response inhibition constrains on GrapfPad PRISM 5.00. IC50 values were calculated as the compound concentrations necessary to inhibit 50% of the maximal interaction between EthR and its DNA operator […]
Figure S7 IC50 curve (SPR) for N-((1-(4-Cyanophenyl)piperidin-4-yl)methyl)pyrrolidine-1-

[3] = biological target: T1, EthR; experiment: Isothermal titration calorimetry (ITC) binding to EthR; details: for K D (ITC): n.d. = no heats of binding detected
Text: Figure S5 Crystal structure of 28 bound to EthR (the two different binding modes for this ligand are super-imposed). Although the conformations of the side chains of residues Phe184 and Trp138 preclude the formation of sub-pockets III and IV in the sense of Figure S3, compound 28 is still capable of binding to the protein by altering the shape of the EthR hydrophobic cavity and moulding it around its own scaffold. (PDB code 5F0H) […]
Differential scanning fluorimetry (DSF)
DSF measurements were carried out using a Bio-Rad CFX Connect machine with a 96-well reaction module. Samples (50 μl each) containing EthR (20 μM), NaCl (150 mM), Tris.HCl (20 mM, pH = 8.5), SYPRO orange (2.5x) and test compound (100 µM) in water were prepared in 96-well plates. The 96-well plates were heated linearly from 25 °C to 95 °C using a temperature increment of 0.5 °C every 30 seconds. Melting curves represent plots of the fluorescence emission intensity at λmax 490/575 nm of each sample against temperature.
Melting temperatures (Tm) were determined as the temperatures at which the minima on the negative first derivatives of the melting curves occurred.
Isothermal titration calorimetry (ITC)
An aqueous solution of the fragment to be tested (1 mM) was prepared containing NaCl (300 mM), Tris.HCl (20 mM, pH = 8.0), d6-DMSO (10% v/v) and glycerol (to match the 10% v/v glycerol content in the EthR stock solution). A separate aqueous solution of EthR (50 μM) […]
(1 picture or pasted object on this page, not shown here) […]
as §1, §2, §3

T1 sequence (P9WMC1 whole entry, looked up): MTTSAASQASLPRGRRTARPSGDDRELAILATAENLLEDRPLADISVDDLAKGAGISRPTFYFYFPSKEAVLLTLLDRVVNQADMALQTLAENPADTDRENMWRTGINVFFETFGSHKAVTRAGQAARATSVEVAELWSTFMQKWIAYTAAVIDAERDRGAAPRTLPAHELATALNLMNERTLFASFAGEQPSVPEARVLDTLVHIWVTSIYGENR

| Structure (SMILES) | ΔT m [1] | IC50 [2] | Kd [3] | also measured |
| --- | --- | --- | --- | --- |
| CCOC(=O)c1ccc(N2CCC(CCC(=O)N3CCCC3)CC2)cc1 [Compound 16] | +9.3 °C | 3 µM | – | K D (ITC) [3]: binding could not be measured by ITC |
| N#Cc1ccc(N2CCC(CCC(=O)NCc3ccc(N4CCCCC4)cc3)CC2)cc1 [Compound 28] | – | 33 µM | – | K D (ITC) [3]: could not be observed by ITC |
| O=C(CCC1CCCC1)Nc1cccc(N2CCCCC2)c1 [Compound 4] | +4.5 °C | > 100 µM | – | – |
| N#Cc1ccc(N2CCC(CCC(=O)NCc3cccc(N4CCCCC4)c3)CC2)cc1 [Compound 29] | +9.2 °C | 52 µM | – | K D (ITC) [3]: could not be observed by ITC |
| CNCc1ccc(N2CCCN(C(=O)CCC3CCCC3)C2)cc1 [Compound 3, 3-cyclopentyl-1-(3-(4-((methylamino)methyl)phenyl)tetrahydropyrimidin-1(2H)-yl)propan-1-one] | – | > 100 µM | – | – |
| N#Cc1ccc(N2CCC(CNC(=O)C3CCCC3)CC2)cc1 [Compound 19] | +5.9 °C | 25 µM | – | – |
| O=C(NCC1CCN(c2ncccn2)CC1)N1CCCC1 [Compound 22] | +3.7 °C | 20 µM | 12 µM | – |
| CCOC(=O)c1ccc(N2CCC(CNC(=O)C3CCCC3)CC2)cc1 [Compound 20] | +5.5 °C | > 100 µM | – | – |
| CN(Cc1ccc(N2CCC(CCC(=O)N3CCCC3)CC2)cc1)C(=O)OC(C)(C)C [Compound 14] | +6.3 °C | 7 µM | 3 µM | fold improvement by SPR compared to compound 5 [2]: five-fold |
| N#Cc1ccc(N2CCC(CCC(=O)Nc3cccc(N4CCCCC4)c3)CC2)cc1 [Compound 23, 3-(1-(4-cyanophenyl)piperidin-4-yl)-N-(3-(piperidin-1-yl)phenyl)propanamide] | – | > 100 µM | – | K D (ITC) [3]: could not be observed by ITC |
| CCOC(=O)c1ccc(N2CCC(CNC(=O)N3CCCC3)CC2)cc1 [Compound 18] | +8.8 °C | 2 µM | – | – |
| N#Cc1ccc(N2CCC(CCC(=O)N3CCCC3)CC2)cc1 [Compound 15, 4-(4-(3-Oxo-3-(pyrrolidin-1-yl)propyl)piperidin-1-yl)benzonitrile] | +7.5 °C | 3 µM | 1 µM | LE [2]: 0.34; fold improvement by SPR compared to compound 5 [2]: 10 fold; fold decrease in K D by ITC compared to compound 5 ([3]; compared to compound 5): five-fold |
| CNCc1ccc(N2CCCCC2)cc1 [Compound 2] | +3.8 °C | – | – | IC50 ([2]; disruption of EthR binding to its DNA operator, SPR, read-out: IC50 (SPR)): > 100 µM |
| CNCc1ccc(N2CCC(CCC(=O)N3CCCC3)CC2)cc1 [Compound 5] | +4.3 °C | 35 µM | 5 µM | fold improvement in disruption of EthR-DNA interaction (SPR IC50) compared to starting fragment 1 ([2]; compared to fragment 1): eight-fold |
| N#Cc1ccc(N2CCC(CNC(=O)N3CCCC3)CC2)cc1 [Compound 17, N-((1-(4-Cyanophenyl)piperidin-4-yl)methyl)pyrrolidine-1-carboxamide] | +7.2 °C | 4 µM | – | – |
| O=C(NCC1CCN(c2ccccn2)CC1)N1CCCC1 [Compound 21] | +3.8 °C | 22 µM | 24 µM | LE [2]: 0.31 |
| O=C(CCC1CCCC1)N1CCCC1 [Compound 1] | +3.5 °C | 280 µM | 12 µM | LE [2]: 0.36 |
